Laboratory results reported in ChEMBL document CHEMBL1126407, “-Lactam peptides as potential inhibitors of the HIV gp120-CD4 interaction” (Bioorg Med Chem Lett, 1992).
Calls of active or inactive are those of the source. No cut-off for these calls is given here.

Experiments:
[1] = target: Envelope glycoprotein gp160 (Human immunodeficiency virus type 1 group M subtype B (isolate HXB2)(HIV-1), UniProt P04578); experiment: Tested for inhibition of HIV gp120-CD4 interaction in an ELISA based binding assay using recombinant CD4-gp120
[2] = target: Envelope glycoprotein gp160 (Human immunodeficiency virus type 1 group M subtype B (isolate HXB2)(HIV-1)) (UniProt P04578); experiment: Tested for inhibition of HIV CD4-gp120 interaction in an ELISA based binding assay using recombinant gp120 and soluble CD4 up to a concentration of 350 uM; No inhibition
[3] = target: Envelope glycoprotein gp160 (Human immunodeficiency virus type 1 group M subtype B (isolate HXB2)(HIV-1)) (UniProt P04578); experiment: Tested for inhibition of HIV CD4-gp120 interaction in an ELISA based binding assay using recombinant gp120 and soluble CD4 up to a concentration of 550 uM; No inhibition

| inhibition [2] | Compound | also measured |
| --- | --- | --- |
| – | COC(=O)C(=O)N1CCC[C@@H]1C(=O)N[C@H](Cc1ccccc1)C(=O)OCc1ccccc1 | IC50 [1]: 250 µM |
| inactive | COC(=O)[C@H](Cc1ccccc1)NC(=O)[C@@H]1N2C(=O)[C@@H](N)[C@H]2SC1(C)C | – |
| – | COC(=O)[C@H](Cc1ccccc1)NC(=O)[C@H]1/C(=C/CO)O[C@@H]2CC(=O)N21 | inhibition [3]: inactive |
| inactive | CC(C)C[C@H](NC(=O)[C@H](Cc1ccccc1)NC(=O)[C@H]1/C(=C/CO)O[C@@H]2CC(=O)N21)C(=O)OCc1ccccc1 | – |
